Laboratory results published in US10799457B2, “Exosomal compositions and methods for the treatment of disease” (priority 2010, dated 2020).

Tests used:
[1] = test system: Gr1^+ cells; assay: Gr1+ cell apoptosis, Annexin V FACS analysis; type: cell-based, Mouse; conditions: 5 μM and 10 μM, 8 hours, Annexin V-FITC FACS
Experimental: For cell surface marker staining, isolated cells were blocked at 4° C. for 5 min with 10 μg/ml mouse Fc block (BD Biosciences, San Jose, Calif.) and then reacted with various fluorochrome-labeled antibodies including appropriate isotype controls for 30 min at 4° C. After washing twice, cells were fixed and analyzed using a FACSCalibur flow cytometer (Becton Dickinson Biosciences, San Jose, Calif.). Data were analyzed using FlowJo software (Tree Star, Inc., Ashland, Oreg.). The following antibodies were used for immunostaining: FITC-Annexing V (Invitrogen, Carlsbad, Calif.), APC anti-mouse CD11b and PE anti-mouse Gr-1 (eBiosciences, San Diego, Calif.).
Mouse bone marrow cells were isolated as described previously (22). The isolated bone marrow cells were re-suspended to a concentration of 1×10^8 cells/ml using RPMI 1640 medium supplemented with 10% FBS. A Gr1-PE conjugated antibody (3 μg/ml), following a mouse FcR blocking specific antibody (5 μl/ml), was added, mixed thoroughly and incubated at 4° C. for 15 min. After centrifugation at 1500 rpm for 5 min, cells were re-suspended in fresh medium to a concentration of 1×10^8 cells/ml. EasySep® PE selection cocktail (25 μl/ml, StemCell Technologies, Vancouver, British Columbia) was added to the cells and incubated at 4° C. for 15 min. […]

[2] = In vitro stability assay in PBS (pH 7.4) at 37° C.; type: physicochemical; conditions: 150 min
Experimental: The fold reduction of the concentration at each time was determined by comparison to the beginning value. The experiments were repeated three times for each time point (n=3).

[3] = test system: C57BL/6 mice; assay: Experimental autoimmune encephalitis (EAE), MOG 35-55 induced; type: in vivo; conditions: intranasal daily from day 4, 1.5 nmoles; scale 0-5
Experimental: EAE was induced in six-week-old female C57BL/6 mice using a procedure described previously (67). Briefly, mice were primed subcutaneously in the flanks with 150 μg of Myelin Oligodendrocyte Glycoprotein (MOG) 35-55 peptide (Biosynthesis, Lewisville, Tex.) per animal. The peptide was emulsified in complete Freund's adjuvant (CFA) containing 1 mg/ml of Mycobacterium tuberculosis H37RA (Difco, Detroit, Mich.). Two days later the mice were injected IP with 500 ng of Pertussis toxin (Alexis Corp., San Diego, Calif.) in 100 μl of PBS. Mice (n=10) were treated intranasally with daily doses of 1.5 nmoles of Exo-cur, or with Cur- or Exo-controls in PBS or PBS-control for 26 consecutive days. […] The mice were scored as follows: 0, no detectable signs of EAE; 1, complete limp tail; 2, limp tail and hindlimb weakness; 3, severe hindlimb weakness; 4, complete bilateral hindlimb paralysis; 5, total paralysis of both forelimbs and hindlimbs or death.
Relative quantification of select mRNA was performed using a CFX96 Realtime System and SsoFast™ Evagreen® supermixture (Bio-Rad Laboratories, Hercules, Calif.) according to the manufacturer's instructions. […] Fold changes in mRNA expression between treatments and controls were determined the ΔCT method (91). Fluorescence threshold cycle (Ct) values were calculated using SDS 700 System Software (Bio-Rad Laboratories, Hercules, Calif.). […]

[4] = test system: C57BL/6j mice; assay: LPS mouse septic shock model; type: in vivo; conditions: 16 hours after IP injection of LPS, 4 mg/kg IP
Experimental: Mouse mortality was monitored over a period of 4 days. The sera were collected 16 hr after LPS injection and used to determine IL-6 and TNF-α levels using ELISAs as before. At day 1 after LPS challenge, 3 mice from each treated group were sacrificed and the leukocytes in the lungs were isolated using a method described previously (21). The percentage of CD11b^+Gr-1^+ cells in the lung was determined by FACS analysis.
Briefly, to monitor mice mortality, a LD50 (median lethal dose) of LPS was determined first. LPS (5 mg/ml, Sigma, St. Louis, Mo.) was then prepared with sterile H2O and varied amounts of LPS were IP injected into the same batch of commercially supplied C57BL/6j mice. Each group contained 6 mice. […] Exosomes and PBS injections served as controls.

## COc1cc(/C=C/C(=O)CC(=O)/C=C/c2ccc(O)c(OC)c2)ccc1O [curcumin]
[1]
  Gr1+ cell apoptosis: induces Gr1^+ cell apoptosis
[2]
  curcumin remaining after incubation compared to the 0 min sample: 25%
[3]
  EAE disease severity score: 3.60±0.12
[4]
  sera level of IL-6: similar
  sera level of TNF-α: similar
